According to US6593329B1, “Method for the treatment or prevention of coronary graft vasospasm” (Orion Corporation, priority 1999, dated 2003):
“And” between values parts separate entries of the source, which are not always exact repeats. Equal values may be shown once.

Test system: human internal mammary artery (IMA) preparations
Test: Prevention of noradrenaline-induced vasospasm in isolated human internal mammary artery rings (isolated ring technique)
Assay type: cell-based
Settings: for Prevention (%) of graft vasospasm (as % of maximal attainable spasm): IMA rings contracted with noradrenaline 1-10 μM, per patient and mean
Procedure: The effect of levosimendan to prevent vasospasm was investigated in human internal mammary artery (IMA) preparations from coronary by-pass surgery (8 patients) at three different levels of vascular tone using isolated ring technique. It is known that IMA may produce spasm during and after graft surgery especially at low perfusion pressure (at or lower than 50 mmHg).
Isometric stretch was applied perpendicular to the direction of blood flow for 45 min in organ bath containing oxygenated Krebs-Henseleit solution (37° C., pH 7.4). Magnitude of stretch (in mN) was converted into quasi-equivalent pressure values (23, 46 and 92 mmHg) according to the Laplace law. Isolated IMA rings were contracted with noradrenaline (1-10 μM), and at the steady state contraction, levosimendan (0.3 and 0.6 μM) was added cumulatively.

SMILES: CC1CC(=O)NN=C1c1ccc(NN=C(C#N)C#N)cc1 (single isomer, unassigned; (-)) [Levosimendan, (−)-[[4-(1,4,5,6-tetrahydro-4-methyl-6-oxo-3-pyridazinyl)phenyl]hydrazono]propanedinitrile]
- Prevention (%) of graft vasospasm (as % of maximal attainable spasm) (23 mmHg transmural pressure, levosimendan 0.3 μM): 46.1% and 27.2% and 37.5% and 60.0% and 46.7% and 40.0%
- Prevention (%) of graft vasospasm (as % of maximal attainable spasm) (23 mmHg transmural pressure, levosimendan 0.6 μM): 76.9% and 125.0% and 45.5% and 62.5% and 0% and 110.0% and 113.3% and 113.0%
- Prevention (%) of graft vasospasm (as % of maximal attainable spasm) (46 mmHg transmural pressure, levosimendan 0.3 μM): 28.6% and 75.0% and 13.8% and 8.3% and 57.1% and 16.2% and 37.8% and 17.3%
- Prevention (%) of graft vasospasm (as % of maximal attainable spasm) (46 mmHg transmural pressure, levosimendan 0.6 μM): 85.7% and 100.0% and 41.4% and 27.1% and 114.3% and 21.6% and 78.4% and 57.7%
- Prevention (%) of graft vasospasm (as % of maximal attainable spasm) (92 mmHg transmural pressure, levosimendan 0.3 μM): 16.6% and 0% and 3.9% and 8.2% and 9.6%
- Prevention (%) of graft vasospasm (as % of maximal attainable spasm) (92 mmHg transmural pressure, levosimendan 0.6 μM): 61.6% and 22.0% and 14.9% and 34.7% and 26.7%
- Prevention of graft vasospasm (result in words) (clinically relevant submicromolar concentrations, in particular at low perfusion pressure values): prevents graft vasospasm
